In brackets after ≈: the same amount, converted by molar mass.
Experiments:
Plasmodium falciparum [1] = experiment: Antimalarial activity after 24 hrs against chloroquine-sensitive Plasmodium falciparum D6 infected type A+ human erythrocytes by [3H]hypoxanthine uptake; format: functional; details: read-out: ED50 (the source's name)
Plasmodium falciparum [2] = experiment: Antimalarial activity after 24 hrs against chloroquine-resistant Plasmodium falciparum W2 infected type A+ human erythrocytes by [3H]hypoxanthine uptake; format: functional; details: read-out: ED50 (the source's name)
[3] = Cytotoxicity against human BCA1 cells after 3 days by sulforhodamine B assay; format: cell-based; details: read-out: ED50
[4] = Cytotoxicity against human HT1080 cells after 3 days by sulforhodamine B assay; format: cell-based, HT-1080; details: read-out: ED50
[5] = Cytotoxicity against human LUC1 cells after 3 days by sulforhodamine B assay; format: cell-based; details: read-out: ED50
[6] = Cytotoxicity against human SK-MEL-2 cells after 3 days by sulforhodamine B assay; format: cell-based; details: read-out: ED50
[7] = Cytotoxicity against human Col1 cells after 3 days by sulforhodamine B assay; format: cell-based; details: read-out: ED50
[8] = Cytotoxicity against human KB cells after 3 days by sulforhodamine B assay; format: cell-based; details: read-out: ED50
[9] = Cytotoxicity against human KBV1 cells after 3 days by sulforhodamine B assay; format: cell-based, KB-V1; details: read-out: ED50
[10] = Cytotoxicity against mouse P388 cells after 2 days by sulforhodamine B assay; format: cell-based; details: read-out: ED50
[11] = Cytotoxicity against human A431 cells after 3 days by sulforhodamine B assay; format: cell-based, A-431; details: read-out: ED50
[12] = Cytotoxicity against human LNCAP cells after 3 days by sulforhodamine B assay; format: cell-based; details: read-out: ED50
[13] = Cytotoxicity against human ZR-75-1 cells after 3 days by sulforhodamine B assay; format: cell-based; details: read-out: ED50
[14] = Selectivity index, ratio of ED50 for human BCA1 cells to ED50 for chloroquine-sensitive Plasmodium falciparum D6; format: toxicity, cell-based; details: read-out: Ratio ED50
[15] = Selectivity index, ratio of ED50 for human BCA1 cells to ED50 for chloroquine-resistant Plasmodium falciparum W2; format: toxicity, cell-based; details: read-out: Ratio ED50
[16] = Selectivity index, ratio of ED50 for human HT1080 cells to ED50 for chloroquine-sensitive Plasmodium falciparum D6; format: toxicity, cell-based, HT-1080; details: read-out: Ratio ED50
[17] = Selectivity index, ratio of ED50 for human HT1080 cells to ED50 for chloroquine-resistant Plasmodium falciparum W2; format: toxicity, cell-based, HT-1080; details: read-out: Ratio ED50
[18] = Selectivity index, ratio of ED50 for human LUC1 cells to ED50 for chloroquine-sensitive Plasmodium falciparum D6; format: toxicity, cell-based; details: read-out: Ratio ED50
[19] = Selectivity index, ratio of ED50 for human LUC1 cells to ED50 for chloroquine-resistant Plasmodium falciparum W2; format: toxicity, cell-based; details: read-out: Ratio ED50
[20] = Selectivity index, ratio of ED50 for human MEL2 cells to ED50 for chloroquine-sensitive Plasmodium falciparum D6; format: toxicity, cell-based; details: read-out: Ratio ED50
[21] = Selectivity index, ratio of ED50 for human MEL2 cells to ED50 for chloroquine-resistant Plasmodium falciparum W2; format: toxicity, cell-based; details: read-out: Ratio ED50
[22] = Selectivity index, ratio of ED50 for human COL1 cells to ED50 for chloroquine-sensitive Plasmodium falciparum D6; format: toxicity, cell-based; details: read-out: Ratio ED50
[23] = Selectivity index, ratio of ED50 for human COL1 cells to ED50 for chloroquine-resistant Plasmodium falciparum W2; format: toxicity, cell-based; details: read-out: Ratio ED50
[24] = Selectivity index, ratio of ED50 for human KB cells to ED50 for chloroquine-sensitive Plasmodium falciparum D6; format: toxicity, cell-based; details: read-out: Ratio ED50
[25] = Selectivity index, ratio of ED50 for human KB cells to ED50 for chloroquine-resistant Plasmodium falciparum W2; format: toxicity, cell-based; details: read-out: Ratio ED50
[26] = Selectivity index, ratio of ED50 for human KB-V1 cells to ED50 for chloroquine-sensitive Plasmodium falciparum D6; format: toxicity, cell-based; details: read-out: Ratio ED50
[27] = Selectivity index, ratio of ED50 for human KB-V1 cells to ED50 for chloroquine-resistant Plasmodium falciparum W2; format: toxicity, cell-based; details: read-out: Ratio ED50
[28] = Selectivity index, ratio of ED50 for human LNCaP cells to ED50 for chloroquine-sensitive Plasmodium falciparum D6; format: toxicity, cell-based; details: read-out: Ratio ED50
[29] = Selectivity index, ratio of ED50 for human LNCaP cells to ED50 for chloroquine-resistant Plasmodium falciparum W2; format: toxicity, cell-based; details: read-out: Ratio ED50
[30] = Selectivity index, ratio of ED50 for human ZR-75-1 cells to ED50 for chloroquine-sensitive Plasmodium falciparum D6; format: toxicity, cell-based; details: read-out: Ratio ED50
[31] = Selectivity index, ratio of ED50 for human ZR-75-1 cells to ED50 for chloroquine-resistant Plasmodium falciparum W2; format: toxicity, cell-based; details: read-out: Ratio ED50
in vitro [32] = details: mouse, P388 cells
Description: Selectivity index, ratio of ED50 for mice (Mus musculus) P388 cells to ED50 for chloroquine-sensitive Plasmodium falciparum D6

in vitro [33] = details: mouse, P388 cells; remark: listed apart in the source
Description: Selectivity index, ratio of ED50 for mice (Mus musculus) P388 cells to ED50 for chloroquine-resistant Plasmodium falciparum W2

in vitro [34] = details: human, A431 cells
Description: Selectivity index, ratio of ED50 for human A431 cells to ED50 for chloroquine-sensitive Plasmodium falciparum D6

in vitro [35] = details: human, A431 cells; remark: listed apart in the source
Description: Selectivity index, ratio of ED50 for human A431 cells to ED50 for chloroquine-resistant Plasmodium falciparum W2

In the case of `COc1ccc2cc1Oc1ccc(cc1)C[C@H]1c3c(cc(OC)c(O)c3Oc3cc4c(cc3OC)CCN[C@@H]4C2)CCN1C`, the EC50 (Plasmodium falciparum [1]) is reported as 0.063 µg/mL (≈ 0.106 µM), the EC50 (Plasmodium falciparum [2]) is reported as 0.223 µg/mL (≈ 0.375 µM) and the CC50 at 72 h [3] is reported as 4.6 µg/mL (≈ 7.73 µM). It also gave a CC50 at 72 h [4] of 6.9 µg/mL (≈ 11.6 µM), a CC50 at 72 h [5] of 9 µg/mL (≈ 15.1 µM) and a CC50 at 72 h [6] of 13.4 µg/mL (≈ 22.5 µM). The CC50 at 72 h [7] was 10.3 µg/mL (≈ 17.3 µM), the CC50 at 72 h [8] was 5.8 µg/mL (≈ 9.75 µM) and the CC50 at 72 h [9] was 2.2 µg/mL (≈ 3.7 µM). It also gave a CC50 at 48 h [10] of 2 µg/mL (≈ 3.36 µM), a CC50 at 72 h [11] of 8.3 µg/mL (≈ 14 µM) and a CC50 at 72 h [12] of 5.8 µg/mL (≈ 9.75 µM). For the same molecule, the CC50 at 72 h [13] was 1.8 µg/mL (≈ 3.03 µM), the selectivity ratio [14] was 73 and the selectivity ratio [15] was 21. It also gave a selectivity ratio [16] of 110, a selectivity ratio [17] of 31 and a selectivity ratio [18] of 143. For the same molecule, the selectivity ratio [19] was 40, the selectivity ratio [20] was 213 and the selectivity ratio [21] was 60. For the same molecule, the selectivity ratio [22] was 164, the selectivity ratio [23] was 46 and the selectivity ratio [24] was 92. For the same molecule, the selectivity ratio [25] was 26, the selectivity ratio [26] was 35 and the selectivity ratio [27] was 10. For the same molecule, the selectivity ratio [28] was 92, the selectivity ratio [29] was 26 and the selectivity ratio [30] was 29. The selectivity ratio [31] was 8, the selectivity ratio (in vitro [32]) was 32 and the selectivity ratio (in vitro [33]) was 9. It also gave a selectivity ratio (in vitro [34]) of 132 and a selectivity ratio (in vitro [35]) of 37.

For `COc1ccc2cc1Oc1ccc(cc1)C[C@H]1c3c(cc(OC)c(O)c3Oc3cc4c(cc3OC)CCN(C)[C@@H]4C2)CCN1C` [HOMOAROMOLINE], the EC50 (Plasmodium falciparum [1]) was 0.105 µg/mL (≈ 0.172 µM), the EC50 (Plasmodium falciparum [2]) was 0.288 µg/mL (≈ 0.474 µM) and the CC50 at 72 h [3] was 3.6 µg/mL (≈ 5.91 µM). The CC50 at 72 h [4] was 9 µg/mL (≈ 14.8 µM), the CC50 at 72 h [5] was 8.6 µg/mL (≈ 14.1 µM) and the CC50 at 72 h [6] was 9 µg/mL (≈ 14.8 µM). The CC50 at 72 h [7] was 10 µg/mL (≈ 16.4 µM), the CC50 at 72 h [8] was 6.3 µg/mL (≈ 10.3 µM) and the CC50 at 72 h [9] was 3.1 µg/mL (≈ 5.09 µM). It also gave a CC50 at 48 h [10] of 3.7 µg/mL (≈ 6.08 µM), a CC50 at 72 h [11] of 8.9 µg/mL (≈ 14.6 µM) and a CC50 at 72 h [12] of 3.4 µg/mL (≈ 5.59 µM). It also gave a CC50 at 72 h [13] of 1.2 µg/mL (≈ 1.97 µM), a selectivity ratio [14] of 34 and a selectivity ratio [15] of 13. For the same molecule, the selectivity ratio [16] was 86, the selectivity ratio [17] was 31 and the selectivity ratio [18] was 93. The selectivity ratio [19] was 34, the selectivity ratio [20] was 86 and the selectivity ratio [21] was 31. For the same molecule, the selectivity ratio [22] was 96, the selectivity ratio [23] was 35 and the selectivity ratio [24] was 60. The selectivity ratio [25] was 22, the selectivity ratio [26] was 30 and the selectivity ratio [27] was 11. The selectivity ratio [28] was 33, the selectivity ratio [29] was 12 and the selectivity ratio [30] was 19. The selectivity ratio [31] was 7, the selectivity ratio (in vitro [32]) was 35 and the selectivity ratio (in vitro [33]) was 13. It also gave a selectivity ratio (in vitro [34]) of 85 and a selectivity ratio (in vitro [35]) of 31.

`COc1ccc2cc1Oc1ccc(cc1)C[C@H]1c3c(cc(OC)c(OC)c3Oc3cc4c(cc3OC)CCN[C@@H]4C2)CCN1C` gave an EC50 (Plasmodium falciparum [1]) of 0.0459 µg/mL (≈ 0.0754 µM), an EC50 (Plasmodium falciparum [2]) of 0.0937 µg/mL (≈ 0.154 µM) and a CC50 at 72 h [3] of 3.2 µg/mL (≈ 5.26 µM). The CC50 at 72 h [4] was 7.4 µg/mL (≈ 12.2 µM), the CC50 at 72 h [5] was 8.8 µg/mL (≈ 14.5 µM) and the CC50 at 72 h [6] was 14.5 µg/mL (≈ 23.8 µM). For the same molecule, the CC50 at 72 h [7] was 5.5 µg/mL (≈ 9.04 µM), the CC50 at 72 h [8] was 6 µg/mL (≈ 9.86 µM) and the CC50 at 72 h [9] was 2 µg/mL (≈ 3.29 µM). The CC50 at 48 h [10] was 3.5 µg/mL (≈ 5.75 µM), the CC50 at 72 h [11] was 6.1 µg/mL (≈ 10 µM) and the CC50 at 72 h [12] was 3.7 µg/mL (≈ 6.08 µM). It also gave a CC50 at 72 h [13] of 1.9 µg/mL (≈ 3.12 µM), a selectivity ratio [14] of 70 and a selectivity ratio [15] of 34. The selectivity ratio [16] was 161, the selectivity ratio [17] was 79 and the selectivity ratio [18] was 192. For the same molecule, the selectivity ratio [19] was 94, the selectivity ratio [20] was 316 and the selectivity ratio [21] was 155. The selectivity ratio [22] was 120, the selectivity ratio [23] was 59 and the selectivity ratio [24] was 131. The selectivity ratio [25] was 64, the selectivity ratio [26] was 44 and the selectivity ratio [27] was 21. For the same molecule, the selectivity ratio [28] was 81, the selectivity ratio [29] was 40 and the selectivity ratio [30] was 41. It also gave a selectivity ratio [31] of 20, a selectivity ratio (in vitro [32]) of 76 and a selectivity ratio (in vitro [33]) of 37. The selectivity ratio (in vitro [34]) was 133 and the selectivity ratio (in vitro [35]) was 65.

From ChEMBL document CHEMBL1147331, “Cytotoxic and antimalarial bisbenzylisoquinoline alkaloids from Stephania erecta” (J Nat Prod, 1993)
